The assay has as its target hQC (Homo sapiens, UniProt Q16769). Put plainly: Fluorometric (fluorescent) assay of hQC inhibition, IC50. It is filed as biochemical. The procedure: All compounds were immediately tested regarding their activity as hQC inhibitors.
The purity of the compounds was determined by HPLC-MS. The IC50 value against hQC was measured using the fluorescent assay.
All measurements were performed with a BioAssay Reader HTS-7000Plus for microplates (Perkin Elmer) at 30° C. QC activity was evaluated fluorometrically using H-Gln-βNA. The samples consisted of 0.2 mM fluorogenic substrate, 0.25 U pyroglutamyl aminopeptidase (Unizyme, Horsholm, Denmark) in 0.2 M Tris/HCl, pH 8.0 containing 20 mM EDTA and an appropriately diluted aliquot of QC in a final volume of 250 μl. Excitation/emission wavelengths were 320/410 nm. The assay reactions were initiated by addition of glutaminyl cyclase. QC activity was determined from a standard curve of β-naphthylamine under assay conditions. One unit is defined as the amount of QC catalyzing the formation of 1 μmol pGlu-βNA from H-Gln-βNA per minute under the described conditions.
In a second fluorometric assay, QC was activity determined using H-Gln-AMC as substrate. Reactions were carried out at 30° C. utilizing the NOVOStar reader for microplates (BMG labtechnologies). The samples consisted of varying concentrations of the fluorogenic substrate, 0.1 U pyroglutamyl aminopeptidase (Qiagen) in 0.05 M Tris/HCl, pH 8.0 containing 5 mM EDTA and an appropriately diluted aliquot of QC in a final volume of 250 μl. Excitation/emission wavelengths were 380/460 nm. The assay reactions were initiated by addition of glutaminyl cyclase. QC activity was determined from a standard curve of 7-amino-4-methylcoumarin under assay conditions. The kinetic data were evaluated using GraFit sofware.
For inhibitor testing, the sample composition was the same as described above, except of the putative inhibitory compound added. For a rapid test of QC-inhibition, samples contained 4 mM of the respective inhibitor and a substrate concentration at 1 KM. For detailed investigations of the inhibition and determination of Ki-values, influence of the inhibitor on the auxiliary enzymes was investigated first. […] The inhibitory constant was evaluated by fitting the set of progress curves to the general equation for competitive inhibition using GraFit software.

Where [1] appears, read: purified compound from preparative synthesis, fluorescent assay, read-out: IC50 hQC.

The structures appear in SMILES notation. Where two headings read alike, the source gives them in different places.

hQC, sequence (Q16769 29-361): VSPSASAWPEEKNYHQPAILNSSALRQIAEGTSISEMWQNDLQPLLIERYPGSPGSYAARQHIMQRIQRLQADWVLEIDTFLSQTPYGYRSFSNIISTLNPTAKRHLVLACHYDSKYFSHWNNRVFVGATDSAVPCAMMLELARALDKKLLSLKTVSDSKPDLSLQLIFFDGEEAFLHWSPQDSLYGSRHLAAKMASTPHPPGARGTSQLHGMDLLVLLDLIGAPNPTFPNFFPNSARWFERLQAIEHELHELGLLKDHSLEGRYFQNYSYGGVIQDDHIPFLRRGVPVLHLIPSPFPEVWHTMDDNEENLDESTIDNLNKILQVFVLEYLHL

As for `Brc1cc(Br)cc(C(Nc2ccc3[nH]cnc3c2)c2nnnn2CCC(c2ccccc2)c2ccccc2)c1` (centres unmarked) [compound 188, (1H-Benzoimidazol-5-yl)-{(3,5-dibromo-phenyl)-[1-(3,3-diphenyl-propyl)-1H-tetrazol-5-yl]-methyl}-amine], the IC50 – broadly, the concentration at which inhibition is half-maximal – (hQC inhibition, read-out: IC50) worked out at 4 µM.

Consider `CCCCn1nnnc1C(NCCCn1ccnc1)c1cc2ccccc2o1` (centres unmarked) [compound 23], for which the IC50 (read-out: IC50) stood at 9.4 µM.

For `c1csc(CCn2nnnc2C(Nc2ccc3[nH]cnc3c2)c2ccc3nsnc3c2)c1` (centres unmarked) [compound 181], where the note is “hQC inhibition, read-out: IC50”, the IC50 is 0.4 µM.

Turning to `CC(Cc1ccc2c(c1)OCO2)C(Nc1ccc2[nH]cnc2c1)c1nnnn1CC(=O)OC(C)(C)C` (centres unmarked) [compound 149, {5-[3-Benzo[1,3]dioxol-5-yl-1-(1H-benzoimidazol-5-ylamino)-2-methyl-propyl]-tetrazol-1-yl}-acetic acid tert-butyl ester], the half-inhibitory concentration (IC50) (hQC inhibition, read-out: IC50) was 4.9 µM.

Regarding `CC(C)(C)c1ccc(-n2nnnc2C(Nc2ccc3[nH]cnc3c2)c2ccc3nsnc3c2)cc1` (centres unmarked) [compound 117], the IC50 (hQC inhibition, read-out: IC50) was determined as 4 µM.

`c1ccc2oc(C(Nc3ccc4[nH]cnc4c3)c3nnnn3C3CCCCC3)cc2c1` (centres unmarked) [compound 79, [Benzofuran-2-yl-(1-cyclohexyl-1H-tetrazol-5-yl)-methyl]-(1H-benzoimidazol-5-yl)-amine]: the IC50 (read-out: IC50) turned out to be 3.1 µM.

`CCCCn1nnnc1C(NCCCn1ccnc1)c1ccc2[nH]ccc2c1` (centres unmarked) [compound 21, [(1-Butyl-1H-tetrazol-5-yl)-(1H-indol-5-yl)-methyl]-(3-imidazol-1-yl-propyl)-amine]: the IC50 (read-out: IC50) came out at 6.7 µM.

Take `C=CCn1nnnc1C(NCCCn1ccnc1)c1ccc2ccccc2n1` (centres unmarked) [compound 47, [(1-Allyl-1H-tetrazol-5-yl)-quinolin-2-yl-methyl]-(3-imidazol-1-yl-propyl)-amine]: the 50% inhibitory concentration (IC50) (read-out: IC50) turned out to be 3.1 µM.

With `COc1ccc(C(Nc2ccc3[nH]cnc3c2)c2nnnn2CC2CCCO2)cc1F` (centres unmarked) [compound 163, (1H-Benzoimidazol-5-yl)-{(3-fluoro-4-methoxy-phenyl)-[1-(tetrahydro-furan-2-ylmethyl)-1H-tetrazol-5-yl]-methyl}-amine], where the note is “hQC inhibition, read-out: IC50”, the IC50 was 8.5 µM.

In the case of `C/C=C/C=C/C(Nc1ccc2[nH]cnc2c1)c1nnnn1CC1COC(C)(C)O1` (centres unmarked) [compound 92, (1H-Benzoimidazol-5-yl)-{(2E,4E)-1-[1-(2,2-dimethyl-[1,3]dioxolan-4-ylmethyl)-1H-tetrazol-5-yl]-hexa-2,4-dienyl}-amine], the IC50 (read-out: IC50) was found to be 4.9 µM.

With `CN(C)c1ccc(C(Nc2ccc3[nH]cnc3c2)c2nnnn2CC2CCCO2)cc1` (centres unmarked) [compound 108, (1H-Benzoimidazol-5-yl)-{(4-dimethylamino-phenyl)-[1-(tetrahydro-furan-2-ylmethyl)-1H-tetrazol-5-yl]-methyl}-amine], the IC50 (read-out: IC50) was 5.8 µM.

`Oc1cccc2ccc(C(NCCCn3ccnc3)c3nnnn3C[C@@H]3CCCO3)nc12` (stereo partly drawn) [compound 12, 2-((3-Imidazol-1-yl-propylamino)-{1-[(S)-1-(tetrahydro-furan-2-yl)methyl]-1H-tetrazol-5-yl}-methyl)-quinolin-8-ol]: the IC50 (read-out: IC50) was determined as 2.2 µM.

With `CC1(C)OCC(Cn2nnnc2C(Nc2ccc3[nH]cnc3c2)c2ccc3c(c2)OCO3)O1` (centres unmarked) [compound 138, {Benzo[1,3]dioxol-5-yl-[1-(2,2-dimethyl-[1,3]dioxolan-4-ylmethyl)-1H-tetrazol-5-yl]-methyl}-(1H-benzoimidazol-5-yl)-amine], where the note is “hQC inhibition, read-out: IC50”, the IC50 was determined as 9.4 µM.

Consider `Cc1ccc2c(C(NCCCn3ccnc3)c3nnnn3C[C@@H]3CCCO3)c[nH]c2c1` (stereo partly drawn) [compound 16, (3-Imidazol-1-yl-propyl)-((6-methyl-1H-indol-3-yl)-{1-[(S)-1-(tetrahydro-furan-2-yl)methyl]-1H-tetrazol-5-yl}-methyl)-amine], for which the concentration for half-maximal inhibition (IC50) (read-out: IC50) was 7.6 µM.

For the compound `CCc1ccc(C(Nc2ccc3[nH]cnc3c2)c2nnnn2Cc2cccnc2)cc1` (centres unmarked) [compound 82, (1H-Benzoimidazol-5-yl)-[(4-ethyl-phenyl)-(1-pyridin-3-ylmethyl-1H-tetrazol-5-yl)-methyl]-amine], where the note is “read-out: IC50”, the IC50 is 4 µM.

With `CC1=CCCC[C@@H]1C(NCCCn1ccnc1)c1nnnn1C1CCCC1` (stereo partly drawn) [compound 27, [(1-Cyclopentyl-1H-tetrazol-5-yl)-((S)-2-methyl-cyclohex-2-enyl)-methyl]-(3-imidazol-1-yl-propyl)-amine], the IC50 (read-out: IC50) was determined as 6.7 µM.

Consider `CCOC(=O)C1CCCCC1n1nnnc1C(Nc1ccc2[nH]cnc2c1)c1ccc(CC)cc1` (centres unmarked) [compound 168], for which, where the note is “hQC inhibition, read-out: IC50”, the IC50 came to 5.8 µM.

Consider `CCOC(=O)C1CCCCC1n1nnnc1C(Nc1ccc2[nH]cnc2c1)c1ccc2c(c1)OCO2` (centres unmarked) [compound 162], for which the IC50 (hQC inhibition, read-out: IC50) was determined as 5.8 µM.

As for `CC(C)(C)OC(=O)Cn1nnnc1C(Nc1ccc2[nH]cnc2c1)c1ccc(Cl)c(F)c1` (centres unmarked) [compound 91, {5-[(1H-Benzoimidazol-5-ylamino)-(4-chloro-3-fluoro-phenyl)-methyl]-tetrazol-11-yl}-acetic acid tert-butyl ester], the IC50 (read-out: IC50) is 4 µM.

As for `Fc1cc(C(Nc2ccc3[nH]cnc3c2)c2nnnn2CCc2cccs2)ccc1Cl` (centres unmarked) [compound 207, (1H-Benzoimidazol-5-yl)-{(4-chloro-3-fluoro-phenyl)-[1-(2-thiophen-2-yl-ethyl)-1H-tetrazol-5-yl]-methyl}-amine], under “hQC inhibition, read-out: IC50”, the IC50 amounted to 4 µM.

As for `c1nc2cc(NC(c3ccc4nsnc4c3)c3nnnn3CC3CCCO3)ccc2[nH]1` (centres unmarked) [compound 105], the IC50 (read-out: IC50) came out at 4.9 µM.

For `CC(C)(C)n1nnnc1C(NCCCn1ccnc1)[C@@H]1CCC=CO1` (stereo in doubt) [compound 61, [(S)-(1-tert-Butyl-1H-tetrazol-5-yl)-3,4-dihydro-2H-pyran-2-yl-methyl]-(3-imidazol-1-yl-propyl)-amine], the IC50 (read-out: IC50) stood at 6.7 µM.

Turning to `C=CCn1nnnc1C(NCCCn1ccnc1)c1ccc2cccc(O)c2n1` (centres unmarked) [compound 45, 2-[(1-Allyl-1H-tetrazol-5-yl)-(3-imidazol-1-yl-propylamino)-methyl]-quinolin-8-ol], the IC50 (read-out: IC50) worked out at 4 µM.

Turning to `Cc1ccc(O)c(C(NCCCn2ccnc2)c2nnnn2Cc2ccc(Cl)cc2)c1` (centres unmarked) [Compound 3, 2-[[1-(4-Chloro-benzyl)-1H-tetrazol-5-yl]-(3-imidazol-1-yl-propylamino)-methyl]-4-methyl-phenol], the IC50 by setting is: under setting [1], 0.584 µM; (read-out: IC50) 0.4 µM.

On to `Clc1ccccc1Cn1nnnc1C(Nc1ccc2[nH]cnc2c1)c1ccc2nsnc2c1` (centres unmarked) [compound 205], for which the IC50 (hQC inhibition, read-out: IC50) came out at 2.2 µM.

Turning to `Cc1ccc(O)c(C(NCCCn2ccnc2)c2nnnn2CC(C)(C)C)c1` (centres unmarked) [Compound 63, 2-[[1-(2,2-Dimethyl-propyl)-1H-tetrazol-5-yl]-(3-imidazol-1-yl-propylamino)-methyl]-4-methyl-phenol], the IC50 is, setting by setting: under setting [1], 2.37 µM; (read-out: IC50) 0.04 µM.

In the case of `COCCCn1nnnc1C(NCCCn1ccnc1)c1ccc2[nH]ccc2c1` (centres unmarked) [compound 35, (3-Imidazol-1-yl-propyl)-{(1H-indol-5-yl)-[1-(3-methoxy-propyl)-1H-tetrazol-5-yl]-methyl}-amine], for the setting “read-out: IC50”, the IC50 stood at 7.6 µM.

In the case of `CCOC(=O)C1CCCCC1n1nnnc1C(Nc1ccc2[nH]cnc2c1)c1ccc(Br)cc1` (centres unmarked) [compound 103], the concentration for half-maximal inhibition (IC50) (read-out: IC50) turned out to be 4.9 µM.

Consider `CC(C)(C)OC(=O)Cn1nnnc1C(Nc1ccc2[nH]cnc2c1)c1ccc(-c2ccccn2)cc1` (centres unmarked) [compound 212, {5-[(1H-Benzoimidazol-5-ylamino)-(4-pyridin-2-yl-phenyl)-methyl]-tetrazol-1-yl}-acetic acid tert-butyl ester], for which the IC50 (hQC inhibition, read-out: IC50) was found to be 2.2 µM.

For the compound `CC(CC(Nc1ccc2[nH]cnc2c1)c1nnnn1-c1ccc(Oc2ccccc2)cc1)c1ccccc1` (centres unmarked) [compound 204, (1H-Benzoimidazol-5-yl)-{1-[1-(4-phenoxy-phenyl)-1H-tetrazol-5-yl]-3-phenyl-butyl}-amine], the IC50 (hQC inhibition, read-out: IC50) was 6.7 µM.

`CC(C)(C)Cn1nnnc1C(NCCCn1ccnc1)c1ccc2[nH]ccc2c1` (centres unmarked) [compound 65, [[1-(2,2-Dimethyl-propyl)-1H-tetrazol-5-yl]-(1H-indol-5-yl)-methyl]-(3-imidazol-1-yl-propyl)-amine]: where the note is “read-out: IC50”, the IC50 turned out to be 4.9 µM.

For `c1ccc(-c2ccc(C(Nc3ccc4[nH]cnc4c3)c3nnnn3CC3CCCO3)cc2)nc1` (centres unmarked) [compound 76, (1H-Benzoimidazol-5-yl)-{(4-pyridin-2-yl-phenyl)-[1-(tetrahydro-furan-2-ylmethyl)-1H-tetrazol-5-yl]-methyl}-amine], the IC50 (read-out: IC50) turned out to be 3.1 µM.

With `Cc1ccc2occ(C(Nc3ccc4[nH]cnc4c3)c3nnnn3CC3CCCO3)c(=O)c2c1` (centres unmarked) [compound 86, 3-{(1H-Benzoimidazol-5-ylamino)-[1-(tetrahydro-furan-2-ylmethyl)-1H-tetrazol-5-yl]-methyl}-6-methyl-chromen-4-one], for the setting “read-out: IC50”, the IC50 was 9.4 µM.

These data come from patent US7741354B2, “Inhibitors of glutaminyl cyclase” (Probiodrug AG, priority 2006, dated 2010).
